Reference: PubChem BioAssay (NCI)
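Step 1: Grow cells in 96-well plates. Step 2: Expose to compound for 48 hours at 5 concentrations. Step 3: Interpolate endpoints linearly; if unreached, use highest concentration. TGI: total growth inhibition.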

How the values were obtained:
Experiment in all cases: NCI tumour cell line growth inhibition, 48 h
BT-549 breast = tested on: BT-549 breast
KM12 colon = tested on: KM12 colon
SR leukemia = tested on: SR leukemia
A498 renal = tested on: A498 renal

O=P1(c2ccccc2)C2=CCC=CC2C(c2ccccc2)N1Cc1ccccc1 (stereo not given)
TGI (BT-549 breast): 31.6 µM
TGI (KM12 colon): 28.3 µM
TGI (SR leukemia): 53.5 µM

CN1B(c2ccccc2)N(C)C(=O)N(C)C1=O
TGI (BT-549 breast): > 100 µM
TGI (KM12 colon): > 100 µM

CC[C@H](C)C1=C(OC(C)=O)[N@+]2([O-])Oc3ccc(-c4c(OC(C)=O)c(OC(C)=O)c(-c5ccc(OC(C)=O)cc5)c(OC(C)=O)c4OC(C)=O)cc3O[C@]2([C@@H](C)CC)C(=O)N1OC(C)=O
TGI (A498 renal): 42.5 µM
TGI (KM12 colon): > 50 µM
TGI (SR leukemia): 28 µM

Cc1cc(C)c(N=Nc2c(O)c(S(=O)(=O)O)cc3cc(S(=O)(=O)O)ccc23)cc1C
TGI (A498 renal): > 100 µM
TGI (BT-549 breast): > 100 µM
TGI (KM12 colon): > 100 µM

O=S(=O)(/N=C(\NO)Nc1ccc(Cl)cc1)c1ccc(-c2ccccn2)s1
TGI (BT-549 breast): > 100 µM
TGI (KM12 colon): > 100 µM
TGI (SR leukemia): > 100 µM

CN(C)CCNc1nc2c(no[n+]2[O-])c2ccccc12
TGI (A498 renal): 31.6 µM
TGI (KM12 colon): 58.9 µM
TGI (SR leukemia): 74.8 µM

C#CCOC(=O)C(N)CCSC (stereo not given)
TGI (A498 renal): > 100 µM
TGI (BT-549 breast): > 100 µM
TGI (KM12 colon): > 100 µM
TGI (SR leukemia): > 100 µM

O=C(O)CC(O)(C(=O)O)C(O)C(=O)O (stereo not given)
TGI (BT-549 breast): > 1000 µM
TGI (KM12 colon): > 1000 µM

COc1ccccc1N=C1SCCN1C(=S)Nc1ccc(S(=O)(=O)/N=C/N(C)C)cc1
TGI (A498 renal): > 100 µM
TGI (BT-549 breast): 49.8 µM
TGI (KM12 colon): > 100 µM

CC1(C)c2ccccc2C(O)C12CCC(=O)CC2 (stereo not given)
TGI (A498 renal): > 100 µM
TGI (KM12 colon): > 100 µM
TGI (SR leukemia): > 100 µM

C/C=C1\CC(C(=O)OCC)CCCCCCCCCCC1=O (stereo not given)
TGI (A498 renal): > 100 µM
TGI (BT-549 breast): > 100 µM
TGI (KM12 colon): > 100 µM

OC1c2ccccc2C(O)C2OC12 (stereo not given)
TGI (A498 renal): > 100 µM
TGI (BT-549 breast): > 100 µM
TGI (KM12 colon): > 100 µM
TGI (SR leukemia): > 100 µM

C=CC1(c2ccc(OC)cc2)OCCCO1
TGI (KM12 colon): > 100 µM
TGI (SR leukemia): > 100 µM

CCN(CC)CCC(=O)c1ccc(Oc2ccc(F)cc2)cc1
TGI (BT-549 breast): 32.8 µM
TGI (KM12 colon): 36.6 µM
TGI (SR leukemia): > 100 µM

COc1ccc2c(c1)-c1[nH]c3ccccc3c1CC2
TGI (BT-549 breast): 31.3 µM
TGI (KM12 colon): 26.8 µM

COc1cc2c(cc1OCCCCCOc1cc3c(cc1OC)C(=O)N1CCC[C@H]1CN3)N=C[C@@H]1CCCN1C2=O
TGI (BT-549 breast): 34.9 µM
TGI (KM12 colon): 15.2 µM
TGI (SR leukemia): 1.11 µM

Cc1ccc2c(=O)c(-c3n[nH]c(=S)s3)c[nH]c2n1
TGI (A498 renal): > 100 µM
TGI (BT-549 breast): > 100 µM
TGI (KM12 colon): > 100 µM

CCOP(=O)(OCC)C(C)(C)OC(=O)NC#N
TGI (BT-549 breast): > 100 µM
TGI (KM12 colon): > 100 µM
TGI (SR leukemia): > 100 µM

O=C1N[C@@H](COc2ccc(C=Nc3ccc(CCc4ccc(N=Cc5ccc(OC[C@@H]6COC(=O)N6)cc5)cc4)cc3)cc2)CO1
TGI (A498 renal): > 100 µM
TGI (KM12 colon): > 100 µM
TGI (SR leukemia): > 100 µM

CCC1(O)CC(OC2CC(N(C)C)C(OC3CC(O)C(OC4CCC(=O)C(C)O4)C(C)O3)C(C)O2)c2c(O)c3c(c(O)c2C1C(=O)OC)C(=O)c1cccc(O)c1C3=O (stereo not given)
TGI (KM12 colon): 1.28 µM

O=[N+]([O-])c1cc(Cl)ccc1S(=O)(=O)N1CCCc2cc(Cl)ccc21
TGI (A498 renal): > 100 µM
TGI (BT-549 breast): > 100 µM
TGI (KM12 colon): > 100 µM

O=C(NN=C1CCCCC1)NN=C1CCCCC1
TGI (BT-549 breast): > 100 µM
TGI (KM12 colon): > 100 µM

C[N+](C)(N)c1nc(N)c(C#N)c(C#N)c1C#N
TGI (A498 renal): > 10 µM
TGI (SR leukemia): > 10 µM

OCC(O)C(O)C(O)C(O)/C=N/Nc1nc(O)c(/C=C2\C=Nc3ccccc32)[nH]1 (stereo not given)
TGI (A498 renal): > 100 µM
TGI (BT-549 breast): > 100 µM
TGI (KM12 colon): > 100 µM

CC1CN=C(c2ccc(COc3ccc(C4=NCC(C)N4)cc3)cc2)N1 (stereo not given)
TGI (A498 renal): > 100 µM
TGI (BT-549 breast): > 100 µM
TGI (KM12 colon): > 100 µM

CC(/C=N/NC1=NCCCN1)=N\NC1=NCCCN1
TGI (BT-549 breast): > 100 µM
TGI (KM12 colon): > 100 µM
TGI (SR leukemia): > 100 µM

COP(C)(=O)C(Cc1c[nH]c2ccccc12)NC(=O)OCc1ccccc1 (stereo not given)
TGI (A498 renal): > 100 µM
TGI (BT-549 breast): > 100 µM
TGI (KM12 colon): > 100 µM

C#CCCCC(=O)N(C(=O)CS(=O)CC)c1ccccc1 (stereo not given)
TGI (BT-549 breast): > 100 µM
TGI (KM12 colon): > 100 µM
TGI (SR leukemia): > 100 µM

OC(c1ccccc1)(c1cccnc1)C(O)(c1ccccc1)c1cccnc1 (stereo not given)
TGI (BT-549 breast): > 100 µM
TGI (KM12 colon): > 100 µM

COc1ccccc1NS(=O)(=O)c1ccc2ncn(NS(=O)(=O)c3ccc(Cl)cc3)c(=O)c2c1
TGI (BT-549 breast): > 100 µM
TGI (KM12 colon): > 100 µM
TGI (SR leukemia): > 100 µM

CN1C(=O)N(C)C2(CCN(CCCCCCF)CC2)C1=O
TGI (BT-549 breast): > 100 µM
TGI (KM12 colon): > 100 µM
TGI (SR leukemia): > 100 µM

Cc1cc(O)c(C(C)C)cc1N=Cc1ccccc1O
TGI (A498 renal): 66.2 µM
TGI (BT-549 breast): 22 µM
TGI (KM12 colon): 14 µM

Brc1cccc[n+]1-c1ccc2cc(-[n+]3ccccc3Br)ccc2c1
TGI (A498 renal): > 100 µM
TGI (BT-549 breast): > 100 µM
TGI (KM12 colon): 40 µM

COc1ccccc1NCC(=O)Nn1c(C)nc2ccc(S(=O)(=O)Nc3ccccc3OC)cc2c1=O
TGI (BT-549 breast): > 100 µM
TGI (KM12 colon): > 100 µM
TGI (SR leukemia): > 100 µM

Cc1cccc(NC2=NCCO2)c1Cl
TGI (A498 renal): > 100 µM
TGI (KM12 colon): > 100 µM
TGI (SR leukemia): > 100 µM

CC(=O)N(CN1C(=O)CCC1C(=O)O)c1ccccc1Cl (stereo not given)
TGI (A498 renal): > 100 µM
TGI (KM12 colon): > 100 µM
